These results are taken from publication PMC8301544, “A randomized, double‐blind, placebo‐ and positive‐controlled crossover study of the effects of durlobactam on cardiac repolarization in healthy subjects” (Clinical and Translational Science, 2021).

The structures appear in SMILES notation. Read-outs that look alike come from different tables or passages of the source.

In data set [1] the test system is healthy subjects. The data set is described as follows: Cardiodynamic evaluation, 12-lead 24-h Holter ECG (QTcF, HR, categorical outliers). The following applies: for mean placebo-corrected ΔHR (ΔΔHR) / placebo-corrected change from baseline QTcF (ΔΔQTcF): durlobactam 4 g i.v.; for placebo-corrected change from baseline QTcF (ΔΔQTcF): mean ± spread (90% CI); for subjects with QTcF greater than 450 ms and less than or equal to 480 ms: single dose durlobactam 4 g i.v. or moxifloxacin 400 mg oral.
Description: This was a partially double‐blind study in healthy adult subjects, which was conducted as a placebo‐ and active‐controlled, single‐infusion, three‐way crossover study. […] Study treatments were administered in the fasted state on day 1 of each treatment period. A 7 (±2) day washout period occurred between successive treatments. Subjects, investigator, and sponsor were blinded to durlobactam and placebo treatment assignment. Moxifloxacin was administered open‐label.
Variables associated with the primary ECG end point, placebo‐corrected change‐from‐baseline QTcF (ΔΔQTcF), were computed from means of measurements made on multiple replicate ECGs extracted at scheduled timepoints from Holter 12‐lead ECG data. Holter 12‐lead ECGs were read centrally (ERT, Rochester, NY). ECG end points included change‐from‐baseline HR, QTcF, PR, and QRS (ΔHR, ΔQTcF, ΔPR, and ΔQRS); placebo‐corrected change‐from‐baseline HR, PR, and QRS (ΔΔHR, ΔΔPR, and ΔΔQRS); categorical outliers for QTcF, HR, PR, and QRS; and frequency of treatment‐emergent changes of T‐wave morphology and U‐wave presence.
During each treatment period, 12‐lead, 24‐h Holter ECGs were continuously recorded and evaluated by a central ECG laboratory.

The subject of data set [2] is healthy subjects. The data set is described as follows: Safety and tolerability (adverse events). The following applies: for serious AEs, discontinuation for AEs, deaths: all treatment groups; for incidence of at least one AE: single dose durlobactam 4 g i.v. or moxifloxacin 400 mg oral. In kind it is in vivo, human. On the procedure:
Safety was assessed from vital signs (systolic/diastolic blood pressure, HR, respiratory rate, and body temperature), physical examination, clinical laboratory tests (serum chemistry, hematology, and urinalysis), 12‐lead safety ECGs, and adverse events (AEs).

The conditions of data set [3]: single dose, normal renal function; cited from earlier work.
Data set [4] in a line: Plasma pharmacokinetics after single dose in healthy subjects (LC-MS/MS, noncompartmental analysis). The format is in vivo, human. On the procedure:
Moxifloxacin was administered open‐label.
Plasma concentrations less than the lower limit of quantification were reported as 0. Plasma concentrations of durlobactam were determined by validated liquid chromatography with tandem mass spectrometry (LC‐MS/MS) assays operated in the negative ion mode (method number M8351072B) performed at Covance (Salt Lake City, UT). For durlobactam, the quantitation range was 5–5000 ng/ml. Moxifloxacin plasma concentrations were determined by LC‐MS/MS operated in the positive ion mode (method number 180M001.01) performed at Pharmaron ABS (Germantown, PA). The quantitation range was 1–1000 ng/ml.
PK parameters were determined with noncompartmental analysis using Phoenix WinNonlin (version 7.0 or higher), and PK parameters were compared with SAS version 9.3 or higher.

For data set [5] the following is noted: patients with complicated urinary tract infection, durlobactam/sulbactam 1 g every 6 h for 7 days; cited from earlier work.
In data set [6] the test system is healthy subjects.
Description: The relationship between durlobactam plasma concentration and change‐from‐baseline QTcF (ΔQTcF) was investigated by a linear mixed‐effects modeling approach with a treatment effect‐specific intercept. […] The geometric mean of the individual Cmax values for subjects on the active dose were determined.
Data set [7] is described as follows: Single dose study in subjects with varying degrees of renal impairment. In kind it is in vivo, human. Particulars: severe renal impairment category (CLcr = 0-15 ml/min).
Data set [8] concerns class A, C, and D β-lactamases. The following applies: cited from earlier work.
On the set-up of data set [9]: method as in PMID 32284380. The following applies: multiple dose regimen for 11 days, 1 g i.v. dose; cited from earlier work.

With `CC1=C[C@@H]2CN(C(=O)N2OS(=O)(=O)O)[C@@H]1C(N)=O` [durlobactam], the “mean placebo-corrected ΔHR (ΔΔHR)” value is −2.6 bpm in the data set on healthy subjects [1] (3 h post-start-of-infusion) and −0.2 bpm in the data set with healthy subjects [1] (4 h post-start-of-infusion). Also, the “placebo-corrected change from baseline QTcF (ΔΔQTcF)” value was determined as 1.8 ms in the data set with healthy subjects [1] (6 h), 1.8 ms in the data set on healthy subjects [1] (8 h) and 0.0 ms in the data set with healthy subjects [1] (24 h). Further, in the data set on healthy subjects [1] (durlobactam 4 g supratherapeutic dose), the “effect on HR” value is given as “no clinically relevant effect on HR”. Moreover, the “subjects with QTcF greater than 450 ms and less than or equal to 480 ms” value in the data set on healthy subjects [1] was 3.2%. Besides, the “serious AEs, discontinuation for AEs, deaths” value in the data set with healthy subjects [2] is “No serious AEs, discontinuation for AEs, or deaths occurred”. Moreover, the “incidence of fatigue (AE)” value with healthy subjects [2] (durlobactam 4 g i.v., 2 subjects) came out at 6.5%. Further, in the data set with healthy subjects [2], the “incidence of at least one AE” value stood at 19.4%. Moreover, the Cmax is 27,000 ng/ml in [3]; 108 µg/mL in data set [4] (human, plasma, iv, 4 g, durlobactam 4 g single 3-h i.v. infusion, healthy subjects, n = 31, mean, read-out: Cmax); 106 µg/mL in data set [4] (human, plasma, iv, 4 g, durlobactam 4 g single 3-h i.v. infusion, read-out: observed geometric mean Cmax); 39,900 ng/ml in [5]; 28.1 µg/mL in data set [9]. The “Vz (volume of distribution)” value in data set [4] (durlobactam 4 g single 3-h i.v. infusion, n = 31, mean) turned out to be 33.6 ± 5.2 L. Moreover, the Tmax in data set [4] (durlobactam 4 g single 3-h i.v. infusion, n = 31, mean, after start of infusion) is 3.1 ± 0.32 h; in data set [4] (human, plasma, iv, 4 g, durlobactam 4 g single 3-h i.v. infusion, n = 31, mean, after start of infusion, read-out: Tmax), roughly 3 h. In addition, the Vd in data set [4] (human, plasma, iv, 4 g, durlobactam 4 g single 3-h i.v. infusion, n = 31, mean, read-out: Vz (volume of distribution)) worked out at 33.6 L. Moreover, the AUC(0-inf) in data set [4] (human, plasma, iv, durlobactam 4 g single 3-h i.v. infusion, n = 31, mean) stood at 413 µg·h/mL. Besides, the AUC(0-t) in [4] (human, plasma, iv, durlobactam 4 g single 3-h i.v. infusion, n = 31, mean, read-out: AUC0-24) came out at 413 µg·h/mL. Moreover, the clearance in [4] (human, plasma, iv, durlobactam 4 g single 3-h i.v. infusion, n = 31, mean, read-out: CL (total body clearance) (converted)) is roughly 165 mL/min. Further, the half-life in data set [4] (human, plasma, iv, durlobactam 4 g single 3-h i.v. infusion, read-out: mean apparent half-life (converted)) is 2.3 h. In addition, the “fold increase of mean Cmax (4 g dose) above maximum Cmax predicted with a 1 g dose” value is on record as roughly 3.2 fold in data set [4] (patients with normal renal function) and roughly 1.5 fold in [4] (patients with severe renal impairment). Moreover, the “plasma concentration up to which an effect on ΔΔQTcF exceeding 10 ms was excluded” value with healthy subjects [6] (durlobactam) is ~190,000 ng/ml. In addition, the “effect on ECG parameters including QT interval prolongation (C-QT analysis)” value in the data set with healthy subjects [6] (durlobactam 4 g i.v. over 3 h) is on record as “no significant effect”. Also, the “fold of excluded concentration (190,000 ng/ml) over therapeutic plasma concentrations” value with healthy subjects [6] (durlobactam, planned dose of 1 g) is recorded as “over 3 fold”. In addition, the treatment effect-specific intercept in the data set with healthy subjects [6] (durlobactam, not statistically significant) worked out at 0.6 ms. Besides, the “estimated slope of the plasma concentration-QTc relationship” value in the data set with healthy subjects [6] (durlobactam, not statistically significant, 90% CI -0.0000232 to 0.0000194) is −0.0000019 ms per ng/ml. Besides, the “estimated Cmax from linear regression of dose normalized Cmax versus creatinine clearance” value in data set [7] is reported as 60,000 ng/ml. Further, the β-lactamase inhibition result in [8] is “inhibits class A, C, and D β‐lactamases”.

On to `COc1c(N2C[C@@H]3CCCN[C@@H]3C2)c(F)cc2c(=O)c(C(=O)O)cn(C3CC3)c12` [moxifloxacin, reference compound], for which, in the data set with healthy subjects [1], the “subjects with QTcF greater than 450 ms and less than or equal to 480 ms” value is reported as 6.5%. Moreover, the “subjects with ΔQTcF greater than 30 ms and less than or equal to 60 ms” value with healthy subjects [1] (single dose moxifloxacin 400 mg oral) was determined as 6.5%. Besides, in the data set with healthy subjects [2], the “serious AEs, discontinuation for AEs, deaths” value is reported as “No serious AEs, discontinuation for AEs, or deaths occurred” and the “incidence of at least one AE” value amounted to 22.6%. Moreover, the Cmax in data set [4] (human, plasma, po, 400 mg, moxifloxacin single 400 mg oral dose, read-out: mean Cmax) is 2.18 µg/mL. In data set [4] (human, plasma, po, 400 mg, moxifloxacin single 400 mg oral dose, read-out: time to peak plasma concentration), the Tmax was roughly 1.9 h. Besides, the AUC(0-t) in data set [4] (human, plasma, moxifloxacin single 400 mg oral dose, read-out: mean AUC0-last) was found to be 22.6 µg·h/mL. For the same molecule, the “geometric mean peak concentration” value in [4] (moxifloxacin single 400 mg oral dose) is 2103.4 ng/mL. In the data set on healthy subjects [6] (human, in vivo), the “slope of the concentration-QTc relationship” value is given as 0.0065 ms per ng/ml and the treatment effect-specific intercept stood at 0.4 ms.

As a reminder, the Cmax is the maximum level reached in the sampled fluid or tissue. What is called AUC(0-inf) is total exposure, with the tail of the curve extrapolated. One may read the clearance as the volume of plasma or blood freed of the substance per unit of time. A word on the half-life: it is the time needed for the level to fall by half in the phase considered.
